Results reported in patent publication US20200038478A1, “POLYPEPTIDE AND COMPOSITION THEREOF FOR TREATING DISEASES OF METABOLIC SYSTEM” (WUHAN GRECTECH CO., LTD., priority 2017, published 2020).
Bridge positions count the residues as written; N and C are the ends. Square brackets hold non-standard residues; d marks the D form. Ends that are not written are not given here. Met(O) = CS(=O)CC[C@H](N)C(=O)O

Experiments:
Assay type in all cases: in vivo, Kunming white mice
[1] = test system: normal mice; test: Hypoglycemic effect of synthetic polypeptides on normal mice after subcutaneous injection (Example 9); conditions: 1 mg/mL at 0.05 ml/10 g, single subcutaneous injection on the back; for Blood glucose level prior to administration: baseline
[2] = test system: normal mice; test: Hypoglycemic effect of polypeptides on normal mice after tail vein injection (Example 4); conditions: 1 mg/mL at 0.05 ml/10 g, single tail vein injection; for Blood glucose level prior to administration: baseline
[3] = test system: normal mice; test: Hypoglycemic effect on normal mice after tail vein, subcutaneous and intramuscular injection (Example 8); conditions: 1 mg/mL at 0.05 ml/10 g once; for Blood glucose level prior to administration: baseline
[4] = test system: normal mice; test: Hypoglycemic effect on normal mice after subcutaneous injection on the back (Example 5); conditions: for Blood glucose level at 15 min after administration / Blood glucose level at 30 min after administration / Blood glucose level at 45 min after administration / Blood glucose level at 60 min after administration / Blood glucose level prior to administration: single subcutaneous injection on the back; for Blood glucose level prior to administration: baseline
[5] = test system: normal mice; test: Polypeptide vs insulin on normal mice after tail vein injection (Example 10)
[6] = Group B, subcutaneous injection on the back
[7] = Group C, intramuscular injection in the lateral thigh
[8] = Group A high-dose, 1 mg/mL at 0.10 ml/10 g
[9] = Group B medium-dose, 1 mg/mL at 0.05 ml/10 g
[10] = Group C low-dose, 1 mg/mL at 0.025 ml/10 g
[11] = single tail vein injection, polypeptide 2 mg/mL at 0.05 ml/10 g (10 mg/kg), insulin 0.5 U/mL (2.5 U/kg)

Row | Substance | Blood glucose level at 15 min after administration [1] | Blood glucose level at 30 min after administration [1] | Blood glucose level at 45 min after administration [1] | Blood glucose level at 60 min after administration [1] | Blood glucose level prior to administration [1] | further results
1 | ASCNGVCSPFDIPPCGTPLCRCIPVGLVIGNCRNPYG (disulfide 15-32, 3-20, 7-22) [SEQ ID No. 13] | 6.1 ± 0.3 mmol/L | 4.4 ± 0.4 mmol/L | 3.5 ± 0.3 mmol/L | 2.6 ± 0.3 mmol/L | 7.4 ± 0.6 mmol/L | 
2 | ASCNGVCSPFDMPPCGTSACRCIPAGLFIGKCRNPYG (disulfide 15-32, 3-20, 7-22) [SEQ ID No. 17] | 6.6 ± 0.5 mmol/L | 4.9 ± 0.4 mmol/L | 3.6 ± 0.3 mmol/L | 3.0 ± 0.2 mmol/L | 8.2 ± 0.7 mmol/L | 
3 | ASCNGVCSPFEIPPCGSPLCRCIPVGLVIGNCRNPYG (disulfide 15-32, 3-20, 7-22) [SEQ ID No. 21] | 6.7 ± 0.4 mmol/L | 5.2 ± 0.3 mmol/L | 4.3 ± 0.2 mmol/L | 3.6 ± 0.1 mmol/L | 7.8 ± 0.4 mmol/L | 
4 | ASCNGVCSPFEMPPCGSSACRCIPVGLLIGYCRNPSG (disulfide 15-32, 3-20, 7-22; listed as Pisum sativum) [SEQ ID No. 5] |  |  |  |  |  | Blood glucose level at 15 min after administration [2]: 6.3 ± 0.3 mmol/L; Blood glucose level at 30 min after administration [2]: 5.3 ± 0.3 mmol/L; Blood glucose level prior to administration [2]: 7.1 ± 0.5 mmol/L
5 | ASCNGVCSPFEMPPCGTSACRCIPVGLVIGYCRNPSG (disulfide 15-32, 3-20, 7-22; listed as Pisum sativum) [SEQ ID No. 3] |  |  |  |  |  | Blood glucose level at 15 min after administration ([3]; Group A, tail vein injection): 5.6 ± 0.3 mmol/L; Blood glucose level at 30 min after administration ([3]; Group A, tail vein injection): 4.5 ± 0.2 mmol/L; Blood glucose level at 45 min after administration ([3]; Group A, tail vein injection): 3.2 ± 0.1 mmol/L; Blood glucose level at 60 min after administration ([3]; Group A, tail vein injection): 2.4 ± 0.2 mmol/L; Blood glucose level prior to administration ([3]; Group A, tail vein injection): 7.3 ± 0.5 mmol/L; Blood glucose level at 15 min after administration [3, 6]: 5.2 ± 0.2 mmol/L; Blood glucose level at 30 min after administration [3, 6]: 3.5 ± 0.3 mmol/L; Blood glucose level at 45 min after administration [3, 6]: 2.8 ± 0.2 mmol/L; Blood glucose level at 60 min after administration [3, 6]: 2.1 ± 0.1 mmol/L; Blood glucose level prior to administration [3, 6]: 6.2 ± 0.3 mmol/L; Blood glucose level at 15 min after administration [3, 7]: 6.3 ± 0.5 mmol/L; Blood glucose level at 30 min after administration [3, 7]: 4.8 ± 0.4 mmol/L; Blood glucose level at 45 min after administration [3, 7]: 3.5 ± 0.3 mmol/L; Blood glucose level at 60 min after administration [3, 7]: 2.6 ± 0.2 mmol/L; Blood glucose level prior to administration [3, 7]: 8.1 ± 0.7 mmol/L
6 | ASCNGVCSPFEMoxPPCGSSACRCIPVGLLIGYCRNPSG (ASCNGVCSPFE[Met(O)]PPCGSSACRCIPVGLLIGYCRNPSG; disulfide 15-32, 3-20, 7-22; listed as Pisum sativum) [SEQ ID No. 6] |  |  |  |  |  | Blood glucose level at 15 min after administration [2]: 5.6 ± 0.3 mmol/L; Blood glucose level at 30 min after administration [2]: 4.2 ± 0.3 mmol/L; Blood glucose level prior to administration [2]: 6.6 ± 0.4 mmol/L
7 | ASCNGVCSPFEMoxPPCGTSACRCIPVGLFIGYCRNPSG (ASCNGVCSPFE[Met(O)]PPCGTSACRCIPVGLFIGYCRNPSG; disulfide 15-32, 3-20, 7-22; listed as Pisum sativum) [SEQ ID No. 8] |  |  |  |  |  | Blood glucose level at 15 min after administration [4, 8]: 5.1 ± 0.4 mmol/L; Blood glucose level at 30 min after administration [4, 8]: 3.0 ± 0.4 mmol/L; Blood glucose level at 45 min after administration [4, 8]: 2.2 ± 0.2 mmol/L; Blood glucose level at 60 min after administration [4, 8]: 1.7 ± 0.1 mmol/L; Blood glucose level prior to administration [4, 8]: 7.4 ± 0.5 mmol/L; Blood glucose level at 15 min after administration [4, 9]: 5.2 ± 0.4 mmol/L; Blood glucose level at 30 min after administration [4, 9]: 4.3 ± 0.5 mmol/L; Blood glucose level at 45 min after administration [4, 9]: 3.2 ± 0.3 mmol/L; Blood glucose level at 60 min after administration [4, 9]: 2.6 ± 0.2 mmol/L; Blood glucose level prior to administration [4, 9]: 7.1 ± 0.6 mmol/L; Blood glucose level at 15 min after administration [4, 10]: 6.2 ± 0.3 mmol/L; Blood glucose level at 30 min after administration [4, 10]: 4.9 ± 0.3 mmol/L; Blood glucose level at 45 min after administration [4, 10]: 3.8 ± 0.2 mmol/L; Blood glucose level at 60 min after administration [4, 10]: 4.6 ± 0.2 mmol/L; Blood glucose level prior to administration [4, 10]: 7.3 ± 0.4 mmol/L; hypoglycemic activity (conclusion) ([4]; normal mice, subcutaneous injection): explicit hypoglycemic activity
8 | ASCNGVCSPFEMoxPPCGTSACRCIPVGLVIGYCRNPSG (ASCNGVCSPFE[Met(O)]PPCGTSACRCIPVGLVIGYCRNPSG; disulfide 15-32, 3-20, 7-22; listed as Pisum sativum) [SEQ ID No. 4] |  |  |  |  |  | Blood glucose level at 15 min after administration [2]: 6.9 ± 0.4 mmol/L; Blood glucose level at 30 min after administration [2]: 4.6 ± 0.3 mmol/L; Blood glucose level prior to administration [2]: 7.5 ± 0.5 mmol/L
9 | ASCNGVCSPFEMoxPPCGTSACRCIPVGLVVGYCRNPSG (ASCNGVCSPFE[Met(O)]PPCGTSACRCIPVGLVVGYCRNPSG; disulfide 15-32, 3-20, 7-22; listed as Pisum sativum) [SEQ ID No. 2] |  |  |  |  |  | Blood glucose level at 15 min after administration [2]: 6.5 ± 0.2 mmol/L; Blood glucose level at 30 min after administration [2]: 4.6 ± 0.3 mmol/L; Blood glucose level prior to administration [2]: 7.2 ± 0.3 mmol/L
10 | ISCNGVCSPFDIPPCGSPLCRCIPAGLVIGNCRNPYG (disulfide 15-32, 3-20, 7-22; listed as Pisum sativum) [SEQ ID No. 11] |  |  |  |  |  | hypoglycemic effect compared with insulin ([5]; polypeptide 10 mg/kg vs insulin 2.5 U/kg, tail vein injection): the same hypoglycemic effect on normal mice as insulin; Blood glucose level at 15 min after administration [5, 11]: 4.1 ± 0.3 mmol/L; Blood glucose level at 30 min after administration [5, 11]: 2.8 ± 0.2 mmol/L; Blood glucose level at 45 min after administration [5, 11]: 2.2 ± 0.1 mmol/L; Blood glucose level at 60 min after administration [5, 11]: 2.0 ± 0.1 mmol/L; Blood glucose level prior to administration ([5]; single tail vein injection, polypeptide 2 mg/mL at 0.05 ml/10 g (10 mg/kg), insulin 0.5 U/mL (2.5 U/kg), baseline): 8.2 ± 0.5 mmol/L
11 | ISCNGVCSPFDIPPCGTPLCRCIPAGLFVGKCRNPYG (disulfide 15-32, 3-20, 7-22) [SEQ ID No. 36] | 6.2 ± 0.4 mmol/L | 4.3 ± 0.3 mmol/L | 3.5 ± 0.2 mmol/L | 2.8 ± 0.1 mmol/L | 7.1 ± 0.5 mmol/L | 
12 | ISCNGVCSPFDMPPCGSPACRCIPAGLLIGYCRNPSG (disulfide 15-32, 3-20, 7-22) [SEQ ID No. 38] | 4.9 ± 0.3 mmol/L | 3.6 ± 0.4 mmol/L | 3.1 ± 0.2 mmol/L | 3.5 ± 0.3 mmol/L | 6.3 ± 0.5 mmol/L | 
13 | ISCNGVCSPFEIPPCGSSLCRCIPAGLLVGKCRNPSG (disulfide 15-32, 3-20, 7-22) [SEQ ID No. 44] | 6.3 ± 0.3 mmol/L | 5.5 ± 0.2 mmol/L | 3.8 ± 0.3 mmol/L | 2.6 ± 0.2 mmol/L | 7.2 ± 0.3 mmol/L | 
14 | ISCNGVCSPFEMPPCGTSLCRCIPAGLVVGYCRNPSG (disulfide 15-32, 3-20, 7-22) [SEQ ID No. 50] | 6.2 ± 0.5 mmol/L | 5.3 ± 0.2 mmol/L | 4.6 ± 0.3 mmol/L | 3.2 ± 0.3 mmol/L | 7.3 ± 0.6 mmol/L | 
15 | VSCNGVCSPFDIPPCGTPACRCIPYGLFVGNCRNPYG (disulfide 15-32, 3-20, 7-22) [SEQ ID No. 52] | 6.4 ± 0.4 mmol/L | 5.4 ± 0.5 mmol/L | 4.3 ± 0.3 mmol/L | 2.9 ± 0.3 mmol/L | 7.1 ± 0.3 mmol/L | 
16 | VSCNGVCSPFDMPPCGTSACRCIPAGLFIGYCRNPSG (disulfide 15-32, 3-20, 7-22) [SEQ ID No. 61] | 5.6 ± 0.4 mmol/L | 4.3 ± 0.3 mmol/L | 3.6 ± 0.2 mmol/L | 2.3 ± 0.1 mmol/L | 6.9 ± 0.4 mmol/L | 
17 | VSCNGVCSPFEIPPCGSPLCRCIPAGLVIGNCRNPYG (disulfide 15-32, 3-20, 7-22) [SEQ ID No. 63] | 5.9 ± 0.5 mmol/L | 4.6 ± 0.4 mmol/L | 3.2 ± 0.3 mmol/L | 3.5 ± 0.2 mmol/L | 6.6 ± 0.6 mmol/L | 
18 | VSCNGVCSPFEMPPCGSSACRCIPYGLVVGNCRNPSG (disulfide 15-32, 3-20, 7-22) [SEQ ID No. 68] | 5.5 ± 0.4 mmol/L | 4.2 ± 0.3 mmol/L | 3.4 ± 0.4 mmol/L | 2.2 ± 0.1 mmol/L | 6.7 ± 0.6 mmol/L | 
